# Calls of active or inactive are those of the source.
# Legend:
# H9c2 = assay: cells; format: functional, cell-based; settings: Rattus norvegicus, H9c2, Myocardium;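 note: confirmatory concentration-response retest of ultra-high-throughput screening hits for modulation of myocardial damage; cell death induced by hydrogen peroxide oxidative stress; compound pretreatment for 60 min then peroxide exposure for 2 h; potency is for protecting the cells against peroxide damage rather than for killing them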
# [1] = NIH3T3 cell viability loss – ATP luminescence, mouse fibroblasts, counter-screen, dose response (AID 2010); format: functional, cell-based;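 note: cells exposed to compound for about 90 hours before reading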
# [2] = Luminescence Cell-Based Dose Retest to Confirm Inhibitors of Cancer Stem Cells. [Related pubchem assays (depositor defined):AID2717, AID2721]; format: functional; settings: Homo sapiens
# [3] = Trypanosoma cruzi growth suppression in host cells – NIH3T3 host cells, beta-gal luminescence, confirmation (AID 2044); format: functional, cell-based;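 note: intracellular parasites grown in NIH/3T3 mouse fibroblasts as host cells; luminescent beta-galactosidase reporter signal from transgenic T. cruzi replicating inside host cells; inhibitors lower the luminescence signal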
# cells = format: functional
# [4] = alpha-synuclein stem-loop luciferase translation blockers – H4 neuroglioma cells, luminescence, confirmation (AID 1988); format: functional, cell-based
# [5] = Luminescence Cell-Based Dose Response HTS to Identify Inhibitors of 5'UTR Stem-Loop Driven Prion Protein mRNA Translation in H4 Neuroglioblastoma Cells. [Related pubchem assays: 1827 (Project Summary), 1813 (Primary HTS)]; format: functional
# [6] = luciferase reporter signal suppression in cells – H4 neuroglioma cells, luminescence, dose response (AID 1990); format: functional, cell-based
# [7] = viability of uninfected HEp-2 cells – cell-based, HTS, cytotoxicity control for RSV inhibitor project, dose response (AID 2410); format: functional; settings: human respiratory syncytial virus
# [8] = molecular target: T1, Replicative DNA helicase DnaB (Mycobacterium tuberculosis, UniProt P9WMR3); assay: DnaB intein splicing inhibitors, dose response, biochemical, cell-free fluorescence (AID 449749); format: functional
# T1 sequence (P9WMR3 whole entry): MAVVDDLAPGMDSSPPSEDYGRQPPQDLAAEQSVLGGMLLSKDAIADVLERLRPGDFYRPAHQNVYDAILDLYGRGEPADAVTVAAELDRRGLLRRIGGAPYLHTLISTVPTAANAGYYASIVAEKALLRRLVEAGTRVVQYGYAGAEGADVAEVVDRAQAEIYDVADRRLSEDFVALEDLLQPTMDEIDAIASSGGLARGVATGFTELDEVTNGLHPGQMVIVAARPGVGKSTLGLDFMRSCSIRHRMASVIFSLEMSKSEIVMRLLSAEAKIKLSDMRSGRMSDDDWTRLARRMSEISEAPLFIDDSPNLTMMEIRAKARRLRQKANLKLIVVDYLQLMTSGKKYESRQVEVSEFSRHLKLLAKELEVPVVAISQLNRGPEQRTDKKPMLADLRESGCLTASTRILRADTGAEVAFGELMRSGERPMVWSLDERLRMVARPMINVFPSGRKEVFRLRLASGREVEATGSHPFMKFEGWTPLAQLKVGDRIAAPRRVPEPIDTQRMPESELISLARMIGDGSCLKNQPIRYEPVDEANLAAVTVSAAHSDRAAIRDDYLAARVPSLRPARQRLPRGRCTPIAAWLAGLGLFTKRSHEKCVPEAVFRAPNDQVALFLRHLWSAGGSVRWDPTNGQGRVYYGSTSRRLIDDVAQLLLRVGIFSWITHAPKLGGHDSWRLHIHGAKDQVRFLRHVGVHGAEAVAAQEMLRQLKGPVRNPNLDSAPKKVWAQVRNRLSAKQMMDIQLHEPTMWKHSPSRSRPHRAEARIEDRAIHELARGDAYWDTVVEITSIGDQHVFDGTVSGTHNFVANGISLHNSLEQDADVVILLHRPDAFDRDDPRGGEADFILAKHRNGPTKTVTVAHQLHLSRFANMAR
# Protein RecA = molecular target: T2, Protein RecA (Mycobacterium tuberculosis, UniProt P9WHJ3); assay: Fluorescence Cell-Free Homogeneous Dose Retest to Identify Inhibitors of RecA-Intein Splicing Activity. [Related pubchem assays (depositor defined):AID2097, AID2223, AID489010, AID492950]; format: functional
# T2 sequence (P9WHJ3 whole entry): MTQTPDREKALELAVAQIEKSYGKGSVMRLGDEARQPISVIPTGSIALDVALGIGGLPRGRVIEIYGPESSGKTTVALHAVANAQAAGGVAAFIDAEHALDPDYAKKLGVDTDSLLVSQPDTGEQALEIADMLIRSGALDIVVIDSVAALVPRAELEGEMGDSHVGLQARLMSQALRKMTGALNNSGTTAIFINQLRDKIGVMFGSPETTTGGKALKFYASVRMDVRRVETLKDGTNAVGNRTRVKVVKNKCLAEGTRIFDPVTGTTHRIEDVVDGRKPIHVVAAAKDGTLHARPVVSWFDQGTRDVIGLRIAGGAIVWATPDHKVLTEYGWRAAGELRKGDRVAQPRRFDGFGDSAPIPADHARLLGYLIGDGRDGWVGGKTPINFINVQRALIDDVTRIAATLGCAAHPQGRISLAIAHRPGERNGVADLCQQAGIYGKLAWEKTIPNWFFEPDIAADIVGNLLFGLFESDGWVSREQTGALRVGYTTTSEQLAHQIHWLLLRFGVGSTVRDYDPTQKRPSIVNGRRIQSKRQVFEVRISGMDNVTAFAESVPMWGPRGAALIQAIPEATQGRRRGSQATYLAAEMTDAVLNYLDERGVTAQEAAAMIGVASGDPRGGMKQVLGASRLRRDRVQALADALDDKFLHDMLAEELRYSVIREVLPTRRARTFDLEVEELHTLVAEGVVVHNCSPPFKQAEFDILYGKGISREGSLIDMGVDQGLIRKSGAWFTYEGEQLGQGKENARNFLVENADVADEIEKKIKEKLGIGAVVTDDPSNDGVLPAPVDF
# [9] = test system: Streptococcus sp. 'group A'; assay: Streptococcus pyogenes SK(-)GAS viability under kanamycin – luminescence, BacTiterGlo, confirmation, counter-screen for streptokinase expression inhibitor project, dose response (AID 1900); format: functional, organism-based
# Streptococcus = assay: GAS UMAA2166 growth inhibition – luminescence, BacTiterGlo, counter-screen for streptokinase expression inhibitor project, dose response (AID 1915); format: functional, organism-based;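 note: potency for reduction of bacterial viability or growth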
# Streptokinase A = molecular target: T3, Streptokinase A (Streptococcus pyogenes serotype M1, UniProt P10520); assay: viability-normalized secreted streptokinase activity reduction – plasminogen activation absorbance, OD405, dose response (AID 1914); format: functional, Streptococcus pyogenes M1 GAS;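 note: secreted streptokinase activity via plasminogen activation per viability signal from cell pellet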
# T3 sequence (P10520 whole entry): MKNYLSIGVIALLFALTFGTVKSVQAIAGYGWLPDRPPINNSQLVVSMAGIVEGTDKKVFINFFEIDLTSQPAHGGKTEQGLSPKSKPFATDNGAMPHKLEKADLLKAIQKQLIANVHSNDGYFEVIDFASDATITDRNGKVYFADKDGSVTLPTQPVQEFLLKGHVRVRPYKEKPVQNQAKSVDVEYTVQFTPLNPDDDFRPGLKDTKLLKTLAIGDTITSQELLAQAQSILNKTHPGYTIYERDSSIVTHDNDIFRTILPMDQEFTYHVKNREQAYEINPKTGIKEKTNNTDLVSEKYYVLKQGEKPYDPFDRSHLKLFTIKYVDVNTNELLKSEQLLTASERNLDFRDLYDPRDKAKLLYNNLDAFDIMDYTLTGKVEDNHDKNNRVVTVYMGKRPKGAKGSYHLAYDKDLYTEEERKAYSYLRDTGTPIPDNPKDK
# [10] = fluconazole-exposed Candida albicans growth modulators – fluorescence, retest, confirmation (AID 2467); format: functional, cell-based
# [11] = microbe, parasite or virus in culture; format: functional; settings: Mycobacterium tuberculosis
# P388 = assay: cells; format: functional
# P388/ADR = assay: cells; format: functional; settings: Mus musculus
# SN12K1 = assay: cells; format: functional
# [12] = P. falciparum Dd2 growth inhibitors, dose response, SYBR Green, cherry-picked samples (AID 1159567); format: functional, cell-based
smiles,measurement,setting,value
CC(C)NC(=O)COC(=O)Cn1[nH]c(=O)c2ccccc2c1=O,IC50,H9c2,16.4 µM (active)
CC1Cc2ccccc2N1C(=O)COC(=O)c1nnc(O)c2ccccc12 (stereo not given),IC50,H9c2,> 79 µM (inactive)
COc1ccc(C(=O)Nc2nc(-c3ccccn3)cs2)cc1S(=O)(=O)N1CCOCC1,IC50,H9c2,10.9 µM (active)
CC1(C)CC2C1CCC1(O)CC2(C)CCC1N(O)c1ccc(C(=O)NCCO)cn1 (stereo not given),IC50,H9c2,> 79 µM (inactive)
CCOc1cc(CNc2ccc(Br)cc2)cc(Br)c1OCC(=O)NC(C)(C)C,EC50,[1],37.3 µM (active)
same,AC50,[2],31.6 µM (active)
same,EC50,[3],1.91 µM (active)
COc1ccc(OC(=O)CCc2c[nH]c3ccccc23)cc1,IC50,cells,0.48 µM (active)
C=CCn1c(SCc2c(C)noc2C)nc2sc3c(c2c1=O)CCCCC3,EC50,[4],15.1 µM (active)
same,AC50,[2],0.856 µM (active)
same,EC50,[5],14.8 µM (active)
same,EC50,[6],14.7 µM (active)
S=C(Nc1ccccc1Cl)N1CCCC(c2ccccc2)=N1,CC50,[7],25.1 µM (active)
same,AC50,[2],4.35 µM (active)
Cc1nccn1-c1c([N+](=O)[O-])c(=O)n(C)c2ccccc12,AC50,[8],29 µM (active)
same,EC50,Protein RecA,12.2 µM (active)
NC(=O)CC(NC(=O)Cc1ccc(Br)cc1)c1ccc(N2CCN(c3ccccc3)CC2)c([N+](=O)[O-])c1 (stereo not given),AC50,[2],14.4 µM (active)
CC1Cc2ccccc2C(=O)N1 (stereo not given),IC50,H9c2,12.5 µM (active)
Fc1ccc(-[n+]2nc(Nc3ccccc3)sc2-c2c3ccccc3cc3ccccc23)cc1,EC50,[9],6.85 µM (active)
same,AC50,[8],> 380 µM (inactive)
same,EC50,Streptococcus,9.23 µM (active)
same,EC50,Protein RecA,10.6 µM (active)
same,EC50,Streptokinase A,3.22 µM (active)
CC(=O)Nc1cc(OC(=O)c2ccco2)cc(OC(=O)c2ccco2)c1,AC50,[8],1.77 µM (active)
same,EC50,Protein RecA,1.03 µM (active)
O=C(COc1ccccc1)Nc1nnc(-c2ccc3c(c2)CCCC3)o1,IC50,cells,10.3 µM (active)
same,EC50,[10],0.499 µM (active)
Clc1cccc(CNCCNCc2cccc(Cl)c2)c1,IC50,cells,20.5 µM (active)
Cc1cc(C)nc(NC(=O)c2ccc(COc3ccccc3Cl)cc2)c1,AC50,[2],0.245 µM (active)
COc1ccc(-c2c(C#N)c(SCC(=O)c3cc4ccccc4oc3=O)nc(C)c2C(=O)Nc2ccccc2)cc1,AC50,[2],0.738 µM (active)
same,CC50,[11],5.32 µM (active)
CCOC(=O)C(C)Oc1ccc(OCc2ccccc2)cc1 (stereo not given),IC50,cells,6.32 µM (active)
COc1cccc(C(c2nnnn2Cc2ccccc2)N2CCN(C3CCCC3)CC2)c1OC (stereo not given),IC50,H9c2,> 79 µM (inactive)
O=C(COc1cccc2c1CCNC2=O)NC1CCCCC1,IC50,H9c2,> 79 µM (inactive)
COc1ccccc1-c1sc2ccccc2c1C#CC1(O)CCCCC1,AC50,[2],5.11 µM (active)
O=C(COc1cccc(F)c1)Nc1nc(-c2ccccn2)cs1,IC50,H9c2,> 79 µM (inactive)
O=S(=O)(CCBr)CCBr,GI50,"P388; Mus musculus, P388",2.13 µM (inactive)
same,GI50,P388/ADR,2.84 µM (inactive)
same,GI50,"SN12K1; Homo sapiens, SN12K1",6.59 µM (inactive)
COc1ccc(OC)c(/C=N/NC(=O)c2cc3c(OC)c(OC)ccc3[nH]2)c1,IC50,H9c2,> 79 µM (inactive)
CC(=O)C(=O)NC1/C=C(C)\C=C/C(O)C/C=C(C)\C=C/C(O)CC2OC(=O)C1(C)C(=O)C2C (stereo not given),GI50,"P388; Mus musculus, P388",10.4 µM (inactive)
same,GI50,P388/ADR,28.4 µM (inactive)
same,GI50,"SN12K1; Homo sapiens, SN12K1",> 100 µM (inactive)
CCN(CC)CCCOC(=O)/C=C/c1c(C)[nH]c(=O)[nH]c1=O,GI50,"P388; Mus musculus, P388",> 625 µM (inactive)
same,GI50,P388/ADR,426 µM (inactive)
same,GI50,"SN12K1; Homo sapiens, SN12K1",> 625 µM (inactive)
Cc1c(/C=N/NC(=O)c2ccc(O)cc2)c2ccccn2c1C(=O)c1ccc(F)cc1,IC50,H9c2,> 79 µM (inactive)
CSc1nc(NC2OC(CO)C(O)C(O)C2O)c(N)c(=O)n1C (stereo not given),GI50,"P388; Mus musculus, P388",> 100 µM (inactive)
same,GI50,P388/ADR,> 100 µM (inactive)
same,GI50,"SN12K1; Homo sapiens, SN12K1",> 100 µM (inactive)
O=C(N/N=C/C(Br)=C/c1ccccc1)c1cnccn1,IC50,cells,31.1 µM (active)
O=C(NCCCCCCNC(=O)n1cc(F)c(=O)[nH]c1=O)NCCCOCCOCCOCCOCCOCCOCCOCCOCCOCCOCCOCCOCCOCCOCCOCCOCCOCCOCCOCCOCCOCCCNC(=O)C(O)C(O)C(OC1OC(CO)C(O)C(O)C1O)C(O)CO (stereo not given),GI50,"P388; Mus musculus, P388",0.566 µM (active)
same,GI50,P388/ADR,0.43 µM (active)
same,GI50,"SN12K1; Homo sapiens, SN12K1",6.46 µM (inactive)
C=C1CC(OC)(C(OC)C(=O)N(C)[C@H]2OCO[C@H]3C2O[C@H](C[C@@H](COC)OC)C(C)(C)C3OC)O[C@H](C)[C@@H]1C (stereo not given in full),GI50,"P388; Mus musculus, P388",3.58 µM (inactive)
same,GI50,P388/ADR,5.58 µM (inactive)
same,GI50,"SN12K1; Homo sapiens, SN12K1",10.9 µM (inactive)
C[n+]1ccc(Nc2ccc(NC(=O)c3ccc(Nc4cc[n+](C)c5ccc([N+](=O)[O-])cc45)cc3[N+](=O)[O-])cc2)cc1,GI50,P388,0.617 µM (active)
same,GI50,SN12K1,23.4 µM (inactive)
CCCNC(=O)N1[C@@H](C#N)[C@H](c2ccccc2-c2ccccc2F)[C@@H]1CO,AC50,[12],18.8 µM (active)
COc1ccc2c3c([nH]c2c1)[C@@H](CO)N(Cc1cccc(Cl)c1)CC31CCN(C(C)=O)CC1,AC50,[12],3.22 µM (active)
CN1CCN(C(=O)C[C@H]2C[C@@H]3c4cc(NC(=O)Nc5ccc(C(F)(F)F)cc5)ccc4O[C@@H]3[C@@H](CO)O2)CC1,AC50,[12],5.16 µM (active)
COc1cccc2c1C(=N)c1c(O)c3c(c(O)c1C2=O)C[C@@](O)(C(C)=O)C[C@@H]3OC1CC(N)C(O)C(C)O1 (stereo not given in full),GI50,"P388; Mus musculus, P388",0.000159 µM (active)
same,GI50,P388/ADR,0.000673 µM (active)
same,GI50,"SN12K1; Homo sapiens, SN12K1",0.124 µM (active)

# Source: ChEMBL document CHEMBL1201862, “PubChem BioAssay data set” (2004)
